From patent US7414042B2, “Method and composition for selectively inhibiting melanoma” (The Board of Trustees of The University of Illinois, priority 1995, dated 2008) come the findings set out here.

For one series, the system named is A431 (squamous cells). Put plainly: Cytotoxicity against cultured human cancer cells (SRB). It is filed as cell-based. Particulars: three days incubation, SRB; for IC50: Homo sapiens, A-431, 72 h, read-out: ED50 A431. As to the method:
(§1) The plates were incubated for three days. […] Dose response studies were performed to generate ED50 values.

A further series relates to BC-1 (breast). The series is described as above. It is filed as cell-based. Particulars: three days incubation, SRB; for IC50: Homo sapiens, 72 h, read-out: ED50 BC-1. As to the method: as §1
For another series, the system named is COL-2 (colon). Described as above. It counts as cell-based. Particulars: three days incubation, SRB; for IC50: Homo sapiens, Col2, 72 h, read-out: ED50 COL-2. As to the method: as §1
A further series has as its system HT-1080 (sarcoma). Described as above. It is filed as cell-based. Particulars: three days incubation; for IC50: Homo sapiens, HT-1080, 72 h, read-out: ED50 HT-1080. As to the method: as §1
The subject of series [1] is KB (human oral epidermoid carcinoma). The series is described as above. It is filed as cell-based. The conditions noted are these: three days incubation, SRB, Table 1; for IC50: Homo sapiens, 72 h, read-out: ED50 KB. As to the method: as §1
Another series concerns LNCaP (prostate). Described as above. It is filed as cell-based. Particulars: three days incubation, SRB; for IC50: Homo sapiens, LNCaP, 72 h, read-out: ED50 LNCaP. As to the method: as §1
The test system of a further series is LU-1 (lung). Described as above. It is filed as cell-based. The conditions noted are these: three days incubation; for IC50: Homo sapiens, 72 h, read-out: ED50 LU-1. As to the method: as §1
The test system of another series is U373 (glioma). Described as above. Particulars: three days incubation, SRB; for IC50: Homo sapiens, U373 MG, 72 h, read-out: ED50 U373. It is filed as cell-based. As to the method:
as §1

For another series, the system named is ZR-75-1 (breast). The description is as above. It counts as cell-based. The conditions noted are these: three days incubation, SRB; for IC50: Homo sapiens, ZR-75-1, 72 h, read-out: ED50 ZR 75-1. As to the method: as §1
The test system of the next series is MEL-2 (melanoma). Put plainly: Cytotoxicity against cultured human melanoma cells (SRB). It is filed as cell-based. Particulars: three days incubation, SRB, Table 1 and text; for IC50: Homo sapiens, MEL2, 72 h, read-out: ED50 MEL-2. As to the method: as §1
The test system of series [2] is human melanoma and nonmelanoma cancer cell lines.
Protocol: (§2) In the following Table 1, the extracted betulinic acid and the other pure compounds were tested for cycotoxity against the following cultured human cell lines: A431 (squamous cells), BC-1 (breast), COL-2 (colon), HT-1080 (sarcoma), KB (human oral epidermoid carcinoma), LNCaP (prostate), LU-1 (lung), MEL-2 (melanoma), U373 (glioma) and ZR-75-1 (breast).
(§3) Cytotoxicity of the crude extracts and purified compounds was determined in a number of cultured human cancer cell lines. The cells were cultured in appropriate media and under standard conditions. To maintain logarithmic growth, the media were changed 24 hours prior to cytotoxic assays. On the day of the assay, the cells were harvested by trypsinization, counted, diluted in media, and added to 96-well plates containing test compounds dissolved in DMSO; the final DMSO concentration was 0.05%.
(§4) The plates were incubated for three days. Following the incubation period, the cells were fixed and stained with sulforhodamine B (SRB) dye. The bound dye was liberated with Tris base, and the OD515 was measured on an ELISA reader. The growth of the betulinic acid-treated cells was determined by the OD515 values, and the growth was compared to the OD515 values of DMSO-treated control cells. Dose response studies were performed to generate ED50 values.
(§5) The biological evaluation of the derivatives focused on the activity against human melanoma cell lines. In particular, the following betulinic acid derivatives were prepared and tested for cytotoxicity profile against human melanoma cell lines and against a number of selected nonmelanoma cell lines.
Series [3] has the same test system. The series is described as follows: Cytotoxicity profile across the panel of human cancer cell lines. The conditions noted are these: Table 1 panel.
Protocol: as §2, §3, §4, §5

Structures are written as SMILES. In brackets after ≈: the same amount, converted by molar mass. Where two headings read alike, the source gives them in different places.

With `Cc1c2ccncc2c(C)c2c1[nH]c1ccccc12` [Ellipticine], the IC50 in the series on A431 (squamous cells) is 0.5 µg/mL (≈ 2.03 µM); in the series with BC-1 (breast) it was 0.2 µg/mL (≈ 0.812 µM); in the series on COL-2 (colon) it was 0.3 µg/mL (≈ 1.22 µM); with HT-1080 (sarcoma), 1.8 µg/mL (≈ 7.31 µM); in [1], 0.04 µg/mL (≈ 0.162 µM); with LNCaP (prostate) it was 0.8 µg/mL (≈ 3.25 µM). For the same molecule, the IC50 in the series with LU-1 (lung) came to 0.02 µg/mL (≈ 0.0812 µM); with U373 (glioma), 1.6 µg/mL (≈ 6.5 µM); in the series with ZR-75-1 (breast) it was 0.9 µg/mL (≈ 3.65 µM); with MEL-2 (melanoma) it was 0.9 µg/mL (≈ 3.65 µM). For the same molecule, the “cytotoxic activity profile, cell-type selectivity” value in series [2] is on record as “relatively intense, nonselective cytotoxic activity”.

As to `COC(=O)C[C@](O)(CCCC(C)(C)O)C(=O)O[C@@H]1C(OC)=C[C@]23CCCN2CCc2cc4c(cc2[C@H]13)OCO4` [Homoharringtonine], the IC50 in the series with A431 (squamous cells) was determined as 0.02 µg/mL (≈ 0.0367 µM); with BC-1 (breast), 0.03 µg/mL (≈ 0.055 µM); in the series on COL-2 (colon), 0.1 µg/mL (≈ 0.183 µM); in the series on HT-1080 (sarcoma), 0.01 µg/mL (≈ 0.0183 µM); in the series on LNCaP (prostate) it was 0.03 µg/mL (≈ 0.055 µM); in the series on LU-1 (lung), 0.03 µg/mL (≈ 0.055 µM). Besides, the IC50 in the series with U373 (glioma) was 0.2 µg/mL (≈ 0.367 µM); in the series with ZR-75-1 (breast), 0.06 µg/mL (≈ 0.11 µM); in the series with MEL-2 (melanoma), 0.04 µg/mL (≈ 0.0733 µM). Also, the “cytotoxic activity profile, cell-type selectivity” value in series [3] is recorded as “relatively intense, nonselective cytotoxic activity”.

Take `CC[C@]1(O)C[C@H]2CN(CCc3c([nH]c4ccccc34)[C@@](C(=O)OC)(c3cc4c(cc3OC)N(C=O)[C@H]3[C@@](O)(C(=O)OC)[C@H](OC(C)=O)[C@]5(CC)C=CCN6CC[C@]43[C@@H]65)C2)C1` [Vincristine]: the IC50 was 0.01 µg/mL (≈ 0.0121 µM) in the series with A431 (squamous cells); 0.01 µg/mL (≈ 0.0121 µM) in the series with BC-1 (breast); 0.02 µg/mL (≈ 0.0242 µM) in the series on COL-2 (colon); 0.02 µg/mL (≈ 0.0242 µM) with HT-1080 (sarcoma); 0.1 µg/mL (≈ 0.121 µM) in the series on LNCaP (prostate); 0.05 µg/mL (≈ 0.0606 µM) in the series on LU-1 (lung). Besides, the IC50 is 0.06 µg/mL (≈ 0.0727 µM) in the series on U373 (glioma), 0.4 µg/mL (≈ 0.485 µM) with ZR-75-1 (breast) and 0.02 µg/mL (≈ 0.0242 µM) in the series on MEL-2 (melanoma). The “cytotoxic activity profile, cell-type selectivity” value in series [3] is “relatively intense, nonselective cytotoxic activity”.

Regarding `CC[C@]1(O)C[C@@H]2CN(CCc3c([nH]c4ccccc34)[C@@](C(=O)OC)(c3cc4c(cc3OC)N(C)[C@H]3[C@@](O)(C(=O)OC)[C@H](OC(C)=O)[C@]5(CC)C=CCN6CC[C@]43[C@@H]65)C2)C1` [Vinbiastine, vinblastine], the IC50 with A431 (squamous cells) stood at 0.05 µg/mL (≈ 0.0617 µM); in the series with BC-1 (breast), 0.06 µg/mL (≈ 0.074 µM); in the series with COL-2 (colon), 0.01 µg/mL (≈ 0.0123 µM); in the series with HT-1080 (sarcoma) it was 0.02 µg/mL (≈ 0.0247 µM); in series [1] it was 0.04 µg/mL (≈ 0.0493 µM); in the series on LNCaP (prostate), 0.1 µg/mL (≈ 0.123 µM). Also, the IC50 in the series with LU-1 (lung) worked out at 0.02 µg/mL (≈ 0.0247 µM); with U373 (glioma), 1.1 µg/mL (≈ 1.36 µM); in the series on ZR-75-1 (breast), 0.3 µg/mL (≈ 0.37 µM); with MEL-2 (melanoma) it was 0.01 µg/mL (≈ 0.0123 µM). The “cytotoxic activity profile, cell-type selectivity” value in [3] was “relatively intense, nonselective cytotoxic activity”.

On to `CO[C@H](C(=O)[C@@H](O)[C@@H](C)O)[C@@H]1Cc2cc3cc(O[C@H]4C[C@@H](O[C@H]5C[C@@H](O)[C@H](O)[C@@H](C)O5)[C@H](O)[C@@H](C)O4)c(C)c(O)c3c(O)c2C(=O)[C@H]1O[C@H]1C[C@@H](O[C@H]2C[C@@H](O[C@H]3C[C@](C)(O)[C@H](O)[C@@H](C)O3)[C@@H](O)[C@@H](C)O2)[C@H](O)[C@@H](C)O1` [Mithramycin A], for which the “ED50 A431” value in the series with A431 (squamous cells) was found to be 0.09 µg/mL (≈ 0.0829 µM). Further, in the series with BC-1 (breast), the “ED50 BC-1” value was 0.3 µg/mL (≈ 0.276 µM). In the series on COL-2 (colon), the “ED50 COL-2” value turned out to be 0.06 µg/mL (≈ 0.0553 µM). Also, the “ED50 HT-1080” value in the series with HT-1080 (sarcoma) came out at 1.5 µg/mL (≈ 1.38 µM). Besides, the “ED50 KB” value in series [1] is 0.09 µg/mL (≈ 0.0829 µM). Further, the “ED50 LNCaP” value in the series with LNCaP (prostate) came to 0.05 µg/mL (≈ 0.0461 µM). The “ED50 LU-1” value with LU-1 (lung) was determined as 0.2 µg/mL (≈ 0.184 µM). Also, the “ED50 U373” value in the series with U373 (glioma) is 0.04 µg/mL (≈ 0.0369 µM). The “ED50 ZR 75-1” value with ZR-75-1 (breast) was determined as 0.2 µg/mL (≈ 0.184 µM). For the same molecule, the “ED50 MEL-2” value in the series with MEL-2 (melanoma) came to 1.2 µg/mL (≈ 1.11 µM). In addition, the “cytotoxic activity profile, cell-type selectivity” value in [3] is “relatively intense, nonselective cytotoxic activity”.
